Results reported in US20250099448A1, “HETEROCYCLIC COMPOUNDS” (Hoffmann-La Roche Inc., priority 2022, published 2025).

target: T1, MAGL protein (Homo sapiens, UniProt Q99685); test: 2-AG assay: MAGL inhibitory activity by hydrolysis of 2-arachidonoylglycerol to arachidonic acid, followed by mass spectrometry; type: biochemical; details: 8 μM 2-arachidonoylglycerol, 15 min preincubation, 30 min reaction at RT, RapidFire MS readout
T1 sequence (Q99685 1-303): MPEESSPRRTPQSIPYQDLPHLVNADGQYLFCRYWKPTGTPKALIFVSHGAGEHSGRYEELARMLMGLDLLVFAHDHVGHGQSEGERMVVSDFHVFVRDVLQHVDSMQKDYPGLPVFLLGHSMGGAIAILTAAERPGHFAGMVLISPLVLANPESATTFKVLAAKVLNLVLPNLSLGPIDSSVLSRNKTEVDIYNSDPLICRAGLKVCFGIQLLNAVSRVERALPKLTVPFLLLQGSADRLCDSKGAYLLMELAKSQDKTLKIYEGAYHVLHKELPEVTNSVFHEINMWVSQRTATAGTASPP
Protocol: Compounds of formula (I) were profiled for MAGL inhibitory activity by determining the enzymatic activity by following the hydrolysis of the natural substrate 2-arachidonoylglycerol (2-AG) resulting in arachidonic acid, which can be followed by mass spectrometry. This assay is hereinafter abbreviated “2-AG assay”. The 2-AG assay was carried out in 384 well polypropylene assay plates. Compound dilutions were made in 100% DMSO in a polypropylene plate in 3-fold dilution steps to give a final concentration range in the assay from 12.5 μM to […]. Compound dilutions were added to MAGL protein in assay buffer (50 mM TRIS, 1 mM EDTA, 0.01% (v/v) Tween-20, 2.5% (v/v) DMSO). After shaking, the plate was incubated for 15 min at RT. To start the reaction, 2-arachidonoylglycerol in assay buffer was added. The final concentrations in the assay was […] for MAGL protein and 8 μM 2-arachidonoylglyerol. After shaking and 30 min incubation at RT, the reaction was quenched by the addition of two assay volumes of acetonitrile containing 4 μM of d8-arachidonic acid. The amount of arachidonic acid formed was traced by an online SPE system (Agilent Rapidfire) coupled to a triple quadrupole mass spectrometer. A C18 SPE cartridge (Agilent G9205A) was used in an acetonitrile/water liquid setup. The mass spectrometer was operated in negative electrospray mode following the mass transitions 303.1→259.1 for arachidonic acid and 311.1→267.0 for d8-arachidonic acid. The activity of the compounds was calculated based on the ratio of intensities [arachidonic acid/d8-arachidonic acid].

| SMILES | IC50 [nM] |
| --- | --- |
| O=C(N1CC2(CC(Cc3ccc(C(F)(F)F)nc3)C2)C1)N1CC2(CC(c3nnc(C4CC4)[nH]3)C2)C1 [compound 5] | 0.16 |
| O=C(N1CC(c2ccc(N3CC4(CCOC4)C3)nc2)C1)N1CC2(CC(c3nnc(C4CC4)[nH]3)C2)C1 [compound 290] | 21 |
| N=[S@](=O)(c1cccc(CC2CC3(C2)CN(C(=O)N2CC4(CC(c5nnc(C6CC6)[nH]5)C4)C2)C3)c1)C(F)(F)F (single isomer, unassigned) [compound 126] | 0.06 |
| CNc1nnc(-c2ccc(C3CN(C(=O)N4CC5(CC(c6nnc(C7CC7)[nH]6)C5)C4)C3)cc2)s1 [Example 600, [6-(5-cyclopropyl-4H-1,2,4-triazol-3-yl)-2-azaspiro[3.3]heptan-2-yl]-[3-[4-[5-(methylamino)-1,3,4-thiadiazol-2-yl]phenyl]azetidin-1-yl]methanone] | 4.25 |
| CS(=O)(=O)c1cc(F)ccc1CC1CC2(C1)CN(C(=O)N1CC3(CC(c4nnc(C5CCC5)[nH]4)C3)C1)C2 [compound 25] | 4.48 |
| CS(=O)(=O)c1cncc(CC2CC3(C2)CN(C(=O)N2CC4(CC(c5nnc(C6CC6)[nH]5)C4)C2)C3)c1 [compound 120] | 42 |
| O=C(N1CC(CNS(=O)(=O)c2cccc(C(F)(F)F)c2)C1)N1CC2(CC(c3nnc(C4(O)CC4)[nH]3)C2)C1 [compound 211] | 136 |
| NC1(c2nnc(C3CC4(C3)CN(C(=O)N3CC5(CC(Cc6ccc(C(F)(F)F)cn6)C5)C3)C4)[nH]2)CC1 [Example 948, [6-[5-(1-aminocyclopropyl)-4H-1,2,4-triazol-3-yl]-2-azaspiro[3.3]heptan-2-yl]-[6-[[5-(trifluoromethyl)-2-pyridyl]methyl]-2-azaspiro[3.3]heptan-2-yl]methanone] | 2.35 |
| O=C(N1CC(NCc2ccc(C(F)(F)F)cc2F)C1)N1CC2(CC(c3nnc(C4(O)CC4)[nH]3)C2)C1 [compound 198] | 177 |
| O=C(N1CC(CN2CCC(F)(F)CC2)C1)N1CC2(CC(c3nnc(C4CC4)[nH]3)C2)C1 [compound 219] | 923 |
| COCn1cnc(-c2ccccc2CN2CC3(C2)CN(C(=O)N2CC4(CC(c5nnc(C6CC6)[nH]5)C4)C2)C3)n1 [compound 174] | 40.7 |
| O=C(N1CCC(NS(=O)(=O)c2ccc(C(F)(F)F)cc2)CC1)N1CC2(CC(c3nnc(C4CC4)[nH]3)C2)C1 [compound 248] | 676 |
| NC(=O)[C@@H]1CCCCN1c1ccc(C2CN(C(=O)N3CC4(CC(c5nnc(C6CC6)[nH]5)C4)C3)C2)cc1 [Example 394, (2S)-1-[4-[1-[6-(5-cyclopropyl-4H-1,2,4-triazol-3-yl)-2-azaspiro[3.3]heptane-2-carbonyl]azetidin-3 yl]phenyl]piperidine-2-carboxamide] | 1.49 |
| CS(=O)(=O)c1cc(OC(F)(F)F)ccc1OCC1CCN(C(=O)N2CC3(CC(c4nc(C5(O)CC5)n[nH]4)C3)C2)CC1 [Example 923] | 731 |
| O=C(N1CC(c2ccc(N3CCC(O)(C(F)(F)F)C3)nc2)C1)N1CC2(CC(c3nnc(C4CC4)[nH]3)C2)C1 (single isomer, unassigned) [compound 271] | 2.73 |
| N#Cc1[nH]nnc1-c1ccc(C2CN(C(=O)N3CC4(CC(c5nnc(C6CC6)[nH]5)C4)C3)C2)cc1 [Example 910, 4-[4-[1-[6-(5-cyclopropyl-4H-1,2,4-triazol-3-yl)-2-azaspiro[3.3]heptane-2-carbonyl]azetidin-3-yl]phenyl]-1H-triazole-5-carbonitrile] | 4.23 |
| CS(=N)(=O)c1cccc(CC2CC3(C2)CN(C(=O)N2CC4(CC(c5nnc(C6CC6)[nH]5)C4)C2)C3)c1 (stereo not shown) [compound 124] | 2.46 |
| O=C(N1CC2(CC(Cn3cnc(C(F)(F)F)c3)C2)C1)N1CC2(CC(c3nnc(C4CC4)[nH]3)C2)C1 [compound 63] | 3.59 |
| O=C(N1CC(c2ccc([C@H]3C[C@@H](C(F)F)C3)cc2)C1)N1CC2(CC(c3nnc(C4CC4)[nH]3)C2)C1 (single isomer, unassigned) [Example 305, cis-[6-(5-Cyclopropyl-4H-1,2,4-triazol-3-yl)-2-azaspiro[3.3]heptan-2-yl]-[3-[4-[3-(difluoromethyl)cyclobutyl]phenyl]azetidin-1-yl]methanone] | 0.07 |
| O=C(N1CC(N(Cc2ccc(C(F)(F)F)cc2F)CC2CC2)C1)N1CC2(CC(c3nnc(C4CC4)[nH]3)C2)C1 [compound 201] | 17 |
| CS(=O)(=O)c1cc(OC(F)(F)F)ccc1OCC1CCN(C(=O)N2CC3(CC(c4nnc(C5CC5)[nH]4)C3)C2)CC1 [Example 917, [6-(5-cyclopropyl-4H-1,2,4-triazol-3-yl)-2-azaspiro[3.3]heptan-2-yl]-[4-[[2-mesyl-4-(trifluoromethoxy)phenoxy]methyl]piperidino]methanone] | 237 |
| CS(=O)(=O)c1ccc(CC2CC3(C2)CN(C(=O)N2CC4(CC(c5nnc(C6CCC6)[nH]5)C4)C2)C3)cc1 [compound 14] | 14.8 |
| CS(=O)(=O)c1ccc(CN2CCC3(CC2)CN(C(=O)N2CC4(CC(c5nnc(C6CC6)[nH]5)C4)C2)C3)cc1 [compound 179] | 33.6 |

Continued, values first:

| IC50 [nM] | SMILES |
| --- | --- |
| 1 | O=C(N1CC(c2ccc([C@H]3C[C@H](C(F)(F)F)C3)nc2)C1)N1CC2(CC(c3nnc(C4CC4)[nH]3)C2)C1 [compound 300] |
| 2.51 | O=C(N1CC2(CCC(Cc3ccc(C(F)(F)F)cn3)C2)C1)N1CC2(CC(c3nc(C4(O)CC4)n[nH]3)C2)C1 (stereo not shown) [compound 927] |
| 3.95 | O=C(N1CC2(CCC(S(=O)(=O)c3cccc(C(F)(F)F)c3)CC2)C1)N1CC2(CC(c3nc(C4CC4)n[nH]3)C2)C1 [compound 435] |
| 5.12 | O=C(N1CC(COc2ccc(F)cc2Cl)C1)N1CC2(CC(c3nnc(C4CC4)[nH]3)C2)C1 [compound 353] |
| 0.4 | O=C(N1CC2(CC(Cc3cc(C(F)F)[nH]n3)C2)C1)N1CC2(CC(c3nc(C4CC4)n[nH]3)C2)C1 [compound 610] |
| 24 | N#Cc1cc(CC2CC3(C2)CN(C(=O)N2CC4(CC(c5nc(C6CC(F)(F)C6)n[nH]5)C4)C2)C3)cc(C(F)(F)F)c1 [compound 579] |
| 2.65 | N=S(=O)(c1ccc(C2CN(C(=O)N3CC4(CC(c5nc(C6(O)CC6)n[nH]5)C4)C3)C2)cc1)C(F)(F)F (stereo not shown) [compound 697] |
| 0.39 | O=C(N1CC(c2ccc(-n3cnc(C(F)(F)F)n3)cc2)C1)N1CC2(CC(c3nnc(C4CC4)[nH]3)C2)C1 [compound 930] |
| 1.31 | O=C(N1CC(C23CC(c4ccc(F)cc4)(C2)C3)C1)N1CC2(CC(c3nc(C4CC4)n[nH]3)C2)C1 [compound 773] |
| 6.18 | O=C(N1CC2(CCN(Cc3nc(C(F)(F)F)cs3)CC2)C1)N1CC2(CC(c3nc(C4CC4)n[nH]3)C2)C1 [compound 732] |
| 4.6 | O=C(N1CC2(CC(Cc3ccc(S(=O)(=O)C(F)(F)F)cc3)C2)C1)N1CC2(CC(c3nc(C4CC(F)(F)C4)n[nH]3)C2)C1 [compound 526] |
| 4.07 | CCNC(=O)c1cc(Cl)ccc1C12CC(C3CN(C(=O)N4CC5(CC(c6nnc(C7CC7)[nH]6)C5)C4)C3)(C1)C2 [compound 767] |
| 2.13 | CC(C)(C)c1coc(CN2CC3(C2)CN(C(=O)N2CC4(CC(c5nc(C6CC6)n[nH]5)C4)C2)C3)n1 [compound 483] |
| 0.16 | O=C(N1CC(C23CC(Cn4cc(C(F)(F)F)cn4)(C2)C3)C1)N1CC2(CC(c3nc(C4CC4)n[nH]3)C2)C1 [compound 949] |
| 21.9 | O=C(N1CC2(CC(Cc3ccc(C(F)(F)F)cn3)C2)C1)N1CC2(CC(c3nc(C4CC(F)(F)C4)n[nH]3)C2)C1 [compound 661] |
| 33.9 | O=C(N1CC2(CC(c3nnc(C4CC4)[nH]3)C2)C1)N1CC2(C1)CN(c1ncc(C(F)(F)F)cc1F)C2 [compound 678] |
| 0.05 | O=C(N1CC(C23CC(c4ccc(S(=O)(=O)C(F)(F)F)cc4)(C2)C3)C1)N1CC2(CC(c3nc(C4CC4)n[nH]3)C2)C1 [compound 540] |
| 38.4 | O=C(N1CC2(CC(c3ccc(C(F)(F)F)nc3)C2)C1)N1CC2(CC(c3nc(C4(O)CC4)n[nH]3)C2)C1 [compound 829] |
| 0.96 | CS(=O)(=O)c1cc(F)ccc1C12CC(C3CN(C(=O)N4CC5(CC(c6nc(C7CC7)n[nH]6)C5)C4)C3)(C1)C2 [compound 685] |
| 19.1 | O=C(N1CC(C23CC(Cc4ccc(C(F)(F)F)nc4)(C2)C3)C1)N1CC2(CC(c3nc(C4CC4)n[nH]3)C2)C1 [compound 866] |
| 1.4 | O=C(N1CC2(CC(Cc3nc(C(F)(F)F)c[nH]3)C2)C1)N1CC2(CC(c3nc(C4CC4)n[nH]3)C2)C1 [compound 524] |
| 1.46 | Cc1cc(C(F)(F)F)nn1-c1ccc(C2CN(C(=O)N3CC4(CC(c5nnc(C6(O)CC6)[nH]5)C4)C3)C2)cc1 [compound 408] |
| 0.28 | O=C(N1CC2(CC(Cn3cc(S(=O)(=O)C(F)(F)F)cn3)C2)C1)N1CC2(CC(c3nc(C4CC4)n[nH]3)C2)C1 [compound 951] |
